Measured values as given in ChEMBL document CHEMBL3864142, “Allicin-inspired thiolated fluoroquinolones as antibacterials against ESKAPE pathogens” (2016).

What was measured:
Format in all cases: functional
Pseudomonas aeruginosa [1] = assay: Antibacterial activity against Pseudomonas aeruginosa ATCC 15442 at 50 uM in presence of 10 uM ciprofloxacin by disc diffusion method
Enterobacter cloacae [2] = assay: Antibacterial activity against Enterobacter cloacae ATCC 23355 at 25 uM in presence of 10 uM ciprofloxacin by disc diffusion method
Enterococcus faecium [3] = assay: Antibacterial activity against vancomycin-resistant Enterococcus faecium ATCC 700221 at 50 uM by disc diffusion method; conditions: read-out: DIZ
Staphylococcus aureus [4] = assay: Antibacterial activity against methicillin-resistant Staphylococcus aureus BAA-1747 at 25 uM in presence of 10 uM ciprofloxacin by disc diffusion method
Enterobacter cloacae [5] = assay: Antibacterial activity against Enterobacter cloacae ATCC 23355 at 50 uM in presence of 10 uM ciprofloxacin by disc diffusion method
Pseudomonas aeruginosa [6] = assay: Antibacterial activity against Pseudomonas aeruginosa ATCC 15442 at 50 uM by disc diffusion method; conditions: read-out: DIZ
Acinetobacter baumannii [7] = assay: Antibacterial activity against ciprofloxacin-resistant Acinetobacter baumannii BAA-1605 at 50 uM by disc diffusion method; conditions: read-out: DIZ
Klebsiella pneumoniae [8] = assay: Antibacterial activity against ESBL-producer Klebsiella pneumoniae K6 700603 at 50 uM in presence of 10 uM ciprofloxacin by disc diffusion method
Acinetobacter baumannii [9] = assay: Antibacterial activity against ciprofloxacin-resistant Acinetobacter baumannii BAA-1605 at 50 uM in presence of 10 uM ciprofloxacin by disc diffusion method
Acinetobacter baumannii [10] = assay: Antibacterial activity against ciprofloxacin-resistant Acinetobacter baumannii BAA-1605 at 25 uM in presence of 10 uM ciprofloxacin by disc diffusion method
Staphylococcus aureus [11] = assay: Antibacterial activity against methicillin-resistant Staphylococcus aureus BAA-1747 at 50 uM by disc diffusion method; conditions: read-out: DIZ
Enterococcus faecium [12] = assay: Antibacterial activity against vancomycin-resistant Enterococcus faecium ATCC 700221 at 50 uM in presence of 10 uM ciprofloxacin by disc diffusion method
Enterobacter cloacae [13] = assay: Antibacterial activity against Enterobacter cloacae ATCC 23355 at 50 uM by disc diffusion method; conditions: read-out: DIZ
Klebsiella pneumoniae [14] = assay: Antibacterial activity against ESBL-producer Klebsiella pneumoniae K6 700603 at 25 uM in presence of 10 uM ciprofloxacin by disc diffusion method
Pseudomonas aeruginosa [15] = assay: Antibacterial activity against Pseudomonas aeruginosa ATCC 15442 at 25 uM in presence of 10 uM ciprofloxacin by disc diffusion method
Klebsiella pneumoniae [16] = assay: Antibacterial activity against ESBL-producer Klebsiella pneumoniae K6 700603 at 50 uM by disc diffusion method; conditions: read-out: DIZ
Enterococcus faecium [17] = assay: Antibacterial activity against vancomycin-resistant Enterococcus faecium ATCC 700221 at 25 uM in presence of 10 uM ciprofloxacin by disc diffusion method
Staphylococcus aureus [18] = assay: Antibacterial activity against methicillin-resistant Staphylococcus aureus BAA-1747 at 50 uM in presence of 10 uM ciprofloxacin by disc diffusion method

C=CCS[S+]([O-])CC=C (stereo not drawn) [ALLICIN]
diameter of the inhibition zone (DIZ) (Pseudomonas aeruginosa [1]): 27 mm | diameter of the inhibition zone (DIZ) (Enterobacter cloacae [2]): 31 mm | zone of inhibition at 50 µM (Enterococcus faecium [3]): 18 mm | diameter of the inhibition zone (DIZ) (Staphylococcus aureus [4]): 25 mm | diameter of the inhibition zone (DIZ) (Enterobacter cloacae [5]): 31 mm | zone of inhibition at 50 µM (Pseudomonas aeruginosa [6]): 0 mm | zone of inhibition at 50 µM (Acinetobacter baumannii [7]): 24 mm | diameter of the inhibition zone (DIZ) (Klebsiella pneumoniae [8]): 24 mm | diameter of the inhibition zone (DIZ) (Acinetobacter baumannii [9]): 25 mm | diameter of the inhibition zone (DIZ) (Acinetobacter baumannii [10]): 20 mm | zone of inhibition at 50 µM (Staphylococcus aureus [11]): 28 mm | diameter of the inhibition zone (DIZ) (Enterococcus faecium [12]): 17 mm | zone of inhibition at 50 µM (Enterobacter cloacae [13]): 15 mm | diameter of the inhibition zone (DIZ) (Klebsiella pneumoniae [14]): 22 mm | diameter of the inhibition zone (DIZ) (Pseudomonas aeruginosa [15]): 28 mm | zone of inhibition at 50 µM (Klebsiella pneumoniae [16]): 13 mm | diameter of the inhibition zone (DIZ) (Enterococcus faecium [17]): 10 mm | diameter of the inhibition zone (DIZ) (Staphylococcus aureus [18]): 29 mm
